Laboratory results: paper PMC9649612, “Molecular docking and biochemical validation of (-)-syringaresinol-4-O-β-D-apiofuranosyl-(1→2)-β-D-glucopyranoside binding to an allosteric site in monoamine transporters” (Frontiers in Pharmacology, 2022)

Key:
[1] = target: T1, hSERT D328A (S2 site mutant) (Homo sapiens, UniProt P31645, D328A); assay: APP+ transport in HeLa cells expressing hSERT mutant D328A; format: cell-based; settings: 2 μM APP+ 5 min, intact HeLa cells, read-out: SAG IC50 for transport
T1 construct: expressed in transfected cells; host or cells: HeLa (ATCC CCL-2), transient, pcDNA3.1
Protocol: (§1) The mutants used for this study were constructed in the WT background carried by the expression plasmids for hSERT, hDAT, or hNET under the control of CMV promotor in pcDNA3.1 vector, respectively. All mutants were generated using the Mut Express II Fast Mutagenesis Kit (Vazyme) and confirmed by full-length DNA sequencing.
(§2) HeLa cells were cultured in Dulbecco’s Modified Eagle’s Medium supplemented with 10% fetal bovine serum, 100 units/ml penicillin, and 100 μg/ml streptomycin at 37°C in a humidified 5% CO2 incubator. Cells were plated in a 6-well culture plate and grown overnight. Cells at ∼70% confluence were transfected with hSERT, hDAT, or hNET cDNA in pcDNA3.1 by lipofectamine 2000. […] After grown for additional 12–16 h, the cells were assayed for APP^+ or ASP^+ fluorescence image acquisition.
(§3) The cells expressing WT or mutants of hSERT, hDAT, or hNET were wet mounted on polylysine coated glass slides in 12-well plates and applied for the indicated treatments. […] The extent of APP^+ accumulated in the cells was determined by confocal imaging analysis. ASP^+ binding to SERT in the cell membrane was measured with digitonin-permeabilized cells ([Li M. et al., 2022a]). […] After removing excess ASP^+ by rapid washing three times, ASP^+ binding was determined by confocal imaging analysis.
(§4) Images were analyzed using Zen Blue software. […]

[2] = target: T2, hNET F317A (S2 site mutant) (Homo sapiens, UniProt P23975, F317A); assay: APP+ transport in HeLa cells expressing hNET mutant F317A; format: cell-based
T2 construct: expressed in transfected cells; host or cells: HeLa
Protocol: as §1, §2, §3, §4

[3] = target: T3, hDAT S422T (S1 site mutant) (Homo sapiens, UniProt Q01959, S422T); assay: APP+ transport in HeLa cells expressing hDAT mutant S422T; format: cell-based
T3 construct: expressed in transfected cells; host or cells: HeLa
Protocol: as §1, §2, §3, §4

[4] = target: T4, hSERT F556A (S2 site mutant) (Homo sapiens, UniProt P31645, F556A); assay: APP+ transport in HeLa cells expressing hSERT mutant F556A; format: cell-based; settings: 2 μM APP+ 5 min, intact HeLa cells, read-out: SAG IC50 for transport
T4 construct: expressed in transfected cells; host or cells: HeLa (ATCC CCL-2), transient, pcDNA3.1
Protocol: as §1, §2, §3, §4

[5] = target: T5, hSERT I327A (S2 site mutant) (Homo sapiens, UniProt P31645, I327A); assay: ASP+ binding in digitonin-permeabilized HeLa cells expressing hSERT I327A; settings: 10 μM ASP+, read-out: SAG IC50 for binding
T5 construct: expressed in transfected cells; host or cells: HeLa (ATCC CCL-2), transient, pcDNA3.1
Protocol: as §1, §2, §3, §4

[6] = target: T6, hSERT Q562N (S2 site mutant) (Homo sapiens, UniProt P31645, Q562N); assay: ASP+ binding in digitonin-permeabilized HeLa cells expressing hSERT Q562N; settings: 10 μM ASP+, read-out: SAG IC50 for binding
T6 construct: expressed in transfected cells; host or cells: HeLa (ATCC CCL-2), transient, pcDNA3.1
Protocol: as §1, §2, §3, §4

[7] = target: T7, hSERT E494Q (S2 site mutant) (Homo sapiens, UniProt P31645, E494Q); assay: ASP+ binding in digitonin-permeabilized HeLa cells expressing hSERT E494Q; settings: 10 μM ASP+, read-out: SAG IC50 for binding
T7 construct: expressed in transfected cells; host or cells: HeLa (ATCC CCL-2), transient, pcDNA3.1
Protocol: as §1, §2, §3, §4

[8] = target: T8, hSERT Q111N (S2 site mutant) (Homo sapiens, UniProt P31645, Q111N); assay: APP+ transport in HeLa cells expressing hSERT mutant Q111N; format: cell-based; settings: 2 μM APP+ 5 min, intact HeLa cells, read-out: SAG IC50 for transport
T8 construct: expressed in transfected cells; host or cells: HeLa (ATCC CCL-2), transient, pcDNA3.1
Protocol: as §1, §2, §3, §4

[9] = target: T7, hSERT E494Q (S2 site mutant); assay: APP+ transport in HeLa cells expressing hSERT mutant E494Q; format: cell-based; settings: 2 μM APP+ 5 min, intact HeLa cells, read-out: SAG IC50 for transport
Protocol: as §1, §2, §3, §4

[10] = target: T5, hSERT I327A (S2 site mutant); assay: APP+ transport in HeLa cells expressing hSERT mutant I327A; format: cell-based; settings: 2 μM APP+ 5 min, intact HeLa cells, read-out: SAG IC50 for transport
Protocol: as §1, §2, §3, §4

[11] = target: T9, hNET A477G (S2 site mutant) (Homo sapiens, UniProt P23975, A477G); assay: APP+ transport in HeLa cells expressing hNET mutant A477G; format: cell-based; settings: intact HeLa cells, read-out: SAG IC50
T9 construct: expressed in transfected cells; host or cells: HeLa
Protocol: as §1, §2, §3, §4

[12] = target: T10, hDAT T566A (S2 site mutant) (Homo sapiens, UniProt Q01959, T566A); assay: APP+ transport in HeLa cells expressing hDAT mutant T566A; format: cell-based
T10 construct: expressed in transfected cells; host or cells: HeLa
Protocol: as §1, §2, §3, §4

[13] = target: T11, hSERT Y579A (S2 site mutant) (Homo sapiens, UniProt P31645, Y579A); assay: APP+ transport in HeLa cells expressing hSERT mutant Y579A; format: cell-based; settings: 2 μM APP+ 5 min, intact HeLa cells, read-out: SAG IC50 for transport
T11 construct: expressed in transfected cells; host or cells: HeLa (ATCC CCL-2), transient, pcDNA3.1
Protocol: as §1, §2, §3, §4

[14] = target: T12, hDAT Q317A (S2 site mutant) (Homo sapiens, UniProt Q01959, Q317A); assay: APP+ transport in HeLa cells expressing hDAT mutant Q317A; format: cell-based; settings: intact HeLa cells, read-out: SAG IC50
T12 construct: expressed in transfected cells; host or cells: HeLa
Protocol: as §1, §2, §3, §4

[15] = target: T13, hNET W559A (S2 site mutant) (Homo sapiens, UniProt P23975, W559A); assay: APP+ transport in HeLa cells expressing hNET mutant W559A; format: cell-based; settings: intact HeLa cells, read-out: SAG IC50
T13 construct: expressed in transfected cells; host or cells: HeLa
Protocol: as §1, §2, §3, §4

[16] = target: T14, hDAT F320A (S2 site mutant) (Homo sapiens, UniProt Q01959, F320A); assay: APP+ transport in HeLa cells expressing hDAT mutant F320A; format: cell-based
T14 construct: expressed in transfected cells; host or cells: HeLa
Protocol: as §1, §2, §3, §4

[17] = target: T15, hDAT F76V (S1 site mutant) (Homo sapiens, UniProt Q01959, F76V); assay: APP+ transport in HeLa cells expressing hDAT mutant F76V; format: cell-based
T15 construct: expressed in transfected cells; host or cells: HeLa
Protocol: as §1, §2, §3, §4

[18] = target: T16, hSERT E493N (S2 site mutant) (Homo sapiens, UniProt P31645, E493N); assay: APP+ transport in HeLa cells expressing hSERT mutant E493N; format: cell-based; settings: 2 μM APP+ 5 min, intact HeLa cells, read-out: SAG IC50 for transport
T16 construct: expressed in transfected cells; host or cells: HeLa (ATCC CCL-2), transient, pcDNA3.1
Protocol: as §1, §2, §3, §4

[19] = target: T17, hDAT A480G (S2 site mutant) (Homo sapiens, UniProt Q01959, A480G); assay: APP+ transport in HeLa cells expressing hDAT mutant A480G; format: cell-based; settings: intact HeLa cells, read-out: SAG IC50
T17 construct: expressed in transfected cells; host or cells: HeLa
Protocol: as §1, §2, §3, §4

[20] = target: T18, hSERT S559A (S2 site mutant) (Homo sapiens, UniProt P31645, S559A); assay: APP+ transport in HeLa cells expressing hSERT mutant S559A; format: cell-based; settings: 2 μM APP+ 5 min, intact HeLa cells, read-out: SAG IC50 for transport
T18 construct: expressed in transfected cells; host or cells: HeLa (ATCC CCL-2), transient, pcDNA3.1
Protocol: as §1, §2, §3, §4

T14 sequence (Q01959 whole entry F320A): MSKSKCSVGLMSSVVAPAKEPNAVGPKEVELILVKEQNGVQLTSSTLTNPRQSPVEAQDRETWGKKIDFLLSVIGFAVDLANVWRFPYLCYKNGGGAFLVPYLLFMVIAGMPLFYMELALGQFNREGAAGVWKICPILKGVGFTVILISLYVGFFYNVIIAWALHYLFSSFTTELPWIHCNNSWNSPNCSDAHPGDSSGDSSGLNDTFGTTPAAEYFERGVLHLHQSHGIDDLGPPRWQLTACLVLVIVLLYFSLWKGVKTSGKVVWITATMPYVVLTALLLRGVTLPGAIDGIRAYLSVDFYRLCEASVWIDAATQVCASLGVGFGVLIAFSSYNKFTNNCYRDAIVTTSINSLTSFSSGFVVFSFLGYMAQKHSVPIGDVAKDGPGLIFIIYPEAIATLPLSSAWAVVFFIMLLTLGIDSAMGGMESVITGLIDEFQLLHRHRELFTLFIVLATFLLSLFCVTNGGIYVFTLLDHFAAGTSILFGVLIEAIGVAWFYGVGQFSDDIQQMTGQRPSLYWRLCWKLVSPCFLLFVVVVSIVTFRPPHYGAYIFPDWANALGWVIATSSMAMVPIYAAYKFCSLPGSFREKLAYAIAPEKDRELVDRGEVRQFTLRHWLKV
T3 sequence (Q01959 whole entry S422T): as the sequence (Q01959 whole entry F320A) above, with A320F, S422T counted along it
T15 sequence (Q01959 whole entry F76V): as the sequence (Q01959 whole entry F320A) above, with F76V, A320F counted along it
T10 sequence (Q01959 whole entry T566A): as the sequence (Q01959 whole entry F320A) above, with A320F, T566A counted along it
T2 sequence (P23975 whole entry F317A): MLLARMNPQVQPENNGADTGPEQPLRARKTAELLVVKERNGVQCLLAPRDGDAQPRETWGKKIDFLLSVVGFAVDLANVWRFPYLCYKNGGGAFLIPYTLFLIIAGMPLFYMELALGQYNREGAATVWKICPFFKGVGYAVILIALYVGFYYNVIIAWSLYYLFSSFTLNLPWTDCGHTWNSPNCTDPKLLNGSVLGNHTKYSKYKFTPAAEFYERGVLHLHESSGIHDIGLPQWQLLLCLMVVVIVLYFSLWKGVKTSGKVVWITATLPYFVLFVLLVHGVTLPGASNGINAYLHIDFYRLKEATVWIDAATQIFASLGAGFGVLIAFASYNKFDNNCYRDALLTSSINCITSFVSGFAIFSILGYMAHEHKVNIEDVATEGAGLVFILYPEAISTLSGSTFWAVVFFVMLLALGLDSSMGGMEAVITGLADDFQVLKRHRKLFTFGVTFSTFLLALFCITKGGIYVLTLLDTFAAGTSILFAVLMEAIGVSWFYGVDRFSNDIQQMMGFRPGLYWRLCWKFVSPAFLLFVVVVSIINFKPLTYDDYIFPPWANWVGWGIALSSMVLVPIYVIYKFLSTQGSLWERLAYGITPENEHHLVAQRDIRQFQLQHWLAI
T13 sequence (P23975 whole entry W559A): as the sequence (P23975 whole entry F317A) above, with A317F, W559A counted along it
T17 sequence (Q01959 whole entry A480G): as the sequence (Q01959 whole entry F320A) above, with A320F, A480G counted along it
T12 sequence (Q01959 whole entry Q317A): as the sequence (Q01959 whole entry F320A) above, with Q317A, A320F counted along it
T9 sequence (P23975 whole entry A477G): as the sequence (P23975 whole entry F317A) above, with A317F, A477G counted along it

(-)-Syringaresinol-4-O-β-D-apiofuranosyl-(1→2)-β-D-glucopyranoside [SAG]
IC50 [1]: 113 ± 5 µM | Change in SAG inhibition potency compared to WT ([2]; hNET F317A vs WT-hNET): little change | IC50 ([2]; hNET F317A, intact HeLa cells, read-out: SAG IC50): 36.7 ± 7.6 µM | Effect of mutation on SAG inhibition potency ([3]; hDAT S1 residue Ser422 replaced): little effect | IC50 ([3]; hDAT S422T (S1), intact HeLa cells, read-out: SAG IC50): 24.5 ± 1.4 µM | IC50 [4]: 41 ± 6.5 µM | IC50 [5]: 48.3 ± 4.6 µM | IC50 [6]: 450 ± 23 µM | IC50 [7]: 192 ± 16 µM | IC50 [8]: 19.1 ± 2.2 µM | IC50 [9]: 153 ± 2 µM | IC50 [10]: 25.5 ± 1.2 µM | IC50 [11]: > 1000 µM | Increase in SAG IC50 compared with WT ([12]; hDAT T566A vs WT-hDAT): less than 10 fold | IC50 ([12]; hDAT T566A, intact HeLa cells, read-out: SAG IC50): 136 ± 6 µM | IC50 [13]: 127 ± 3 µM | IC50 [14]: 51.3 ± 3.1 µM | IC50 [15]: > 1000 µM | Decrease in SAG IC50 compared with WT ([16]; hDAT F320A vs WT-hDAT): ~50% | IC50 ([16]; hDAT F320A, intact HeLa cells, read-out: SAG IC50): 16.8 ± 0.7 µM | IC50 ([17]; hDAT F76V (S1), intact HeLa cells, read-out: SAG IC50): 18.2 ± 0.8 µM | Effect of mutation on SAG inhibition potency ([17]; hDAT S1 residue Phe76 replaced): little effect | IC50 [18]: 53.2 ± 6.6 µM | IC50 [19]: 239 ± 14 µM | IC50 [20]: 20.2 ± 1.9 µM
